Measured values published in PMC11862924, “Phenylpyrazoles as Inhibitors of the m^6A RNA-Binding Protein YTHDF2” (JACS Au, 2025).

Tests used:
[1] = MTT cytotoxicity assay, JAR; assay type: cell-based; conditions: human, JAR cells, triplicates, read-out: Cytotoxicity against cancer cells (IC50), JAR
Protocol: (§1) JAR, K562, and HCT116 cells were seeded in 96-well plates (3500 cells/well) and incubated for 8 h. The medium with different concentrations of compounds (100, 33.3, 11.1, 3.7, 1.2, and 0.4 μM) was added to the 96-well plates. Data were normalized to the medium with 0.1% DMSO. After incubation for 72 h, MTT solution (5 mg/mL, 20 μL) was added per well in a dark environment and incubated for 4 h. After the medium was discarded, DMSO (150 μL) was added per well, and the absorbance was measured at 492 nm by a plate reader (TECAN Spark).

HCT116 = experiment: CCK-8 proliferation assay, HCT116; assay type: cell-based; conditions: Homo sapiens, HCT-116; CCK-8 kit assay, triplicates, 72 h; read-out: Anti-proliferation activity against cancer cells (IC50), HCT116
Protocol: (§2) The JAR, K562, HCT116, and MOLM13 cells were seeded in 96-well plates (3000 cells/well). After being cultured overnight, compounds were added together with the DMSO treatment (0.1%) as a control. After 72 h, CCK-8 solution (Vazyme, A311) was added, and the cells were incubated at 37 °C for 4 h. The absorbance was measured at 450 nm using a plate reader (TECAN Spark).

[2] = MTT cytotoxicity assay, HCT116; assay type: cell-based; conditions: human, HCT116 cells, triplicates, read-out: Cytotoxicity against cancer cells (IC50), HCT116
Protocol: as §1

JAR = experiment: CCK-8 proliferation assay, JAR; assay type: cell-based; conditions: Homo sapiens; CCK-8 kit assay, triplicates, 72 h; read-out: Anti-proliferation activity against cancer cells (IC50), JAR
Protocol: as §2

[3] = MTT cytotoxicity assay, K562; assay type: cell-based; conditions: human, K562 cells, triplicates, read-out: Cytotoxicity against cancer cells (IC50), K562
Protocol: as §1

K562 = experiment: CCK-8 proliferation assay, K562; assay type: cell-based; conditions: Homo sapiens, CCK-8 kit assay, triplicates, 72 h, read-out: Anti-proliferation activity against cancer cells (IC50), K562
Protocol: as §2

[4] = target: T1, YTHDF2 (residues 383–553) (Homo sapiens, UniProt Q9Y5A9); experiment: Fluorescence polarization (FP) assay, YTHDF2–m6A RNA interaction; assay type: binding; conditions: 100 μM compound; YTHDF2 (residues 383–553, 20 nM), FAM-labeled m6A RNA probe 5 nM; average ± SD
T1 construct: A YTHDF2 YTH domain construct (residues 383–553) was subcloned to a pOPIN plasmid; made in house; host or cells: Escherichia coli BL21(DE3)
T1 sequence (Q9Y5A9 383-553): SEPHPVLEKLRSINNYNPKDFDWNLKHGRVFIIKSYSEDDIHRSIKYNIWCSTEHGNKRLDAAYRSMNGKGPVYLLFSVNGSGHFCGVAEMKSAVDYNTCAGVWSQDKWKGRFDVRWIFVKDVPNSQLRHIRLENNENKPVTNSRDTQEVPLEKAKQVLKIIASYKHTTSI
Protocol: The FP assay was performed in 384-well black plates (Corning no. 4514) with a total reaction volume of 15 μL. The final concentrations of protein (YTHDF2) and RNA were […], respectively, in a buffer containing 20 mM HEPES/KOH pH 7.5, 50 mM NaCl, 0.005% Tween 20, and 1 mM GSH (DTT). Compounds were incubated with protein, added FAM-m^6A RNA probe ([…](m6)ACUGUG) (purchased from IDT), and incubated at 4 °C for 30 min. The fluorescence polarization was measured using a plate reader (TECAN Spark) under an excitation wavelength of 485 nm and an emission wavelength of 535 nm with a bandwidth of 20 nm. […] The data were determined using GraphPad Prism 9.

Row | Structure (SMILES) | IC50 at 72 h [1] [µM] | IC50 (HCT116) [µM] | IC50 at 72 h [2] [µM] | IC50 (JAR) [µM] | IC50 at 72 h [3] [µM] | IC50 (K562) [µM] | inhibition at 100 µM [4] [%] | inhibition at 100 μM in the FP assay [4] [%]
1 | O=C(c1cnn(-c2ccccc2)c1)c1ccccc1O [CK-22] | 48.1 ± 10.2 | > 50 | 43.5 ± 12.3 | 27.6 ± 2.8 | 32.1 ± 12.2 | 28.3 ± 5.4 | -3.7 ± 7.8 | 
2 | O=C(O)c1cccc(-n2cc(C(=O)c3ccccc3O)cn2)c1 [CK-23, 3-(4-(2-hydroxybenzoyl)-1H-pyrazol-1-yl)benzoic acid] | 45 ± 4.6 | > 50 | 12.9 ± 2.5 | > 50 | 21.5 ± 8.2 | > 50 |  | 
3 | O=C(O)c1ccc(-n2cc(C(=O)c3ccccc3O)cn2)cc1 [CK-24] | > 50 | > 50 | > 50 | > 50 | 43.2 ± 15.7 | > 50 | 5.2 ± 6.7 | 
4 | O=C(c1cnn(-c2ccccc2C(=O)O)c1)c1ccccc1O [CK-25] | > 50 | > 50 | > 50 | > 50 | 44.3 ± 13.1 | > 50 | 22.1 ± 3.3 | 
5 | O=C(c1cnn(-c2ccc(F)cc2)c1)c1ccccc1O [CK-26] | 47.2 ± 15.5 | 43.2 ± 5.3 | 29.4 ± 10.4 | 31.2 ± 6.4 | 23.4 ± 9.4 | 21.5 ± 1.9 | 10.7 ± 7.2 | 
6 | O=C(c1cnn(-c2ccc(Cl)cc2)c1)c1ccccc1O [CK-27] | > 50 | 45.6 ± 2.5 | > 50 | > 50 | > 50 | 44.8 ± 8.7 | -5.2 ± 2.8 | 
7 | O=C(c1cnn(-c2ccc(Br)cc2)c1)c1ccccc1O [CK-28] | > 50 | > 50 | > 50 | > 50 | > 50 | > 50 | 42.2 ± 12.1 | 
8 | N#Cc1ccc(-n2cc(C(=O)c3ccccc3O)cn2)cc1 [CK-38] | > 50 | > 50 | > 50 | > 50 | 43.2 ± 11.2 | > 50 | 44.5 ± 7.1 | 
9 | O=C(c1cnn(-c2ccc(OC(F)(F)F)cc2)c1)c1ccccc1O [CK-39] | 46.2 ± 20.8 | 38.9 ± 12.1 | 26.4 ± 10.3 | 31.2 ± 3.5 | 19.8 ± 14.3 | 25.6 ± 2.3 | 6.9 ± 3.3 | 
10 | COc1ccc(-n2cc(C(=O)c3ccccc3O)cn2)cc1 [CK-40] | 44.6 ± 12.3 | > 50 | 25.5 ± 1.8 | > 50 | 33.2 ± 5.8 | 39.2 ± 6.1 | -4.8 ± 3.2 | 
11 | O=C(c1cnn(-c2ccccc2F)c1)c1ccccc1O [CK-43] | > 50 | > 50 | > 50 | > 50 | 46.2 ± 10.1 | > 50 | 24.4 ± 2.1 | 
12 | O=C(c1cnn(-c2ccccc2Cl)c1)c1ccccc1O [CK-44] | 44.7 ± 14.4 | > 50 | 18.5 ± 14.1 | 41.2 ± 8.5 | 32.3 ± 8.8 | 34.9 ± 3.5 | 0.8 ± 7 | 
13 | Cc1ccccc1-n1cc(C(=O)c2ccccc2O)cn1 [CK-45] | 43.2 ± 15.5 | > 50 | 26 ± 16.8 | 42.8 ± 1.2 | 21.9 ± 7.6 | 33.1 ± 5.7 | 22.1 ± 6.6 | 
14 | COc1ccccc1-n1cc(C(=O)c2ccccc2O)cn1 [CK-46] | > 50 | > 50 | 49.4 ± 22.1 | > 50 | 23.8 ± 4.7 | 42.9 ± 6.2 | 5.4 ± 4.2 | 
15 | COc1ccc(-n2cc(C(=O)c3ccccc3O)cn2)cn1 [CK-47] | > 50 | > 50 | > 50 | > 50 | > 50 | > 50 | 25.5 ± 6.7 | 
16 | O=C(c1cnn(-c2ccc(C(F)(F)F)cc2)c1)c1ccccc1O [CK-48] | 37 ± 12.7 | > 50 | 43.1 ± 8.6 | > 50 | 22.8 ± 2.5 | > 50 | 17.5 ± 4.2 | 
17 | NS(=O)(=O)c1ccc(-n2cc(C(=O)c3ccccc3O)cn2)cc1 [CK-49] | 34.6 ± 5.9 | > 50 | 29 ± 11.4 | > 50 | 20.1 ± 12.3 | > 50 | 1.7 ± 6.5 | 
18 | CS(=O)(=O)c1ccc(-n2cc(C(=O)c3ccccc3O)cn2)cc1 [CK-50] | > 50 | > 50 | > 50 | > 50 | 48.2 ± 11.1 | > 50 | 24.3 ± 4 | 
19 | Cc1ccc(-n2cc(C(=O)c3ccccc3O)cn2)cc1 [CK-51] | 32.9 ± 14.2 | > 50 | 18.5 ± 9.4 | > 50 | 20.2 ± 15.4 | 30.1 ± 6.3 | 4.1 ± 3.7 | 
20 | Cc1ccc(O)c(C(=O)c2cnn(-c3ccc(C(=O)O)cc3)c2)c1 [CK-54] | > 50 | > 50 | > 50 | > 50 | > 50 | > 50 | 20.9 ± 3.8 | 
21 | O=C(O)c1ccc(-n2cc(C(=O)c3cc(Br)ccc3O)cn2)cc1 [CK-60] | 37.1 ± 11.4 | > 50 | 12.5 ± 6.4 | > 50 | 16.4 ± 8.2 | > 50 | 63.6 ± 10.8 | 
22 | CCc1ccc(O)c(C(=O)c2cnn(-c3ccc(C(=O)O)cc3)c2)c1 [CK-65] | > 50 | > 50 | > 50 | 45.6 ± 3.9 | > 50 | 43.9 ± 12 | 35.4 ± 6.5 | 
23 | Cc1ccc(C(=O)c2cnn(-c3ccc(C(=O)O)cc3)c2)c(O)c1 [CK-73] | > 50 | > 50 | > 50 | > 50 | > 50 | > 50 | 26.3 ± 6.8 | 
24 | COc1cccc(O)c1C(=O)c1cnn(-c2ccc(C(=O)O)cc2)c1 [CK-85] | > 50 | > 50 | > 50 | 46.2 ± 2.6 | > 50 | > 50 | 64.7 ± 8.4 | 
25 | O=C(O)c1ccc(-n2cc(C(=O)c3cc(F)cc(F)c3O)cn2)cc1 [CK-86] | > 50 | > 50 | > 50 | > 50 | > 50 | > 50 | 54.6 ± 8.4 | 
26 | O=C(O)c1ccc(-n2cc(C(=O)c3ccc(Cl)cc3O)cn2)cc1 [CK-88] | 25 ± 3.6 | > 50 | > 50 | 39 ± 3.2 | 43.2 ± 10.4 | 48.2 ± 6.3 | 28.8 ± 0.1 | 
27 | O=C(O)c1ccc(-n2cc(C(=O)c3ccc(F)cc3O)cn2)cc1 [CK-89] | > 50 | > 50 | 32.8 ± 7.5 | > 50 | 43.8 ± 22.7 | > 50 | 44.4 ± 1.8 | 
28 | COC(=O)c1ccc(-n2cc(/C=C(\C#N)C(N)=O)cn2)cc1 [CK-94] |  |  |  |  |  |  | < 30 | 26.6 ± 1.9
